Data published in US7772241B2, “Variolin derivatives and their use as antitumor agents” (Pharma Mar S.A., priority 2001, dated 2010).
Read-outs that look alike come from different tables or passages of the source.

Key:
LoVo-Dox = assay: Inhibition of cells growth by colorimetric (SRB) assay, LoVo-Dox; details: for GI50 / CC50: Homo sapiens, 48 h; for GI50: read-out: LOVO-DOX GI50, SRB assay, 48 hours exposure; for LOVO-DOX TGI: SRB assay, 48 hours exposure
Method in brief: (§1)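 Human tumour cells seeded at 5×10^3/well in RPMI 1640 10% FBS, attached 18 h, then exposed 48 h to samples at 10 to 10^−8 μg/ml in DMSO/EtOH/PBS (0.5:0.5:99). Growth read by SRB staining after TCA fixation, OD 490 nm, triplicate wells; GI, TGI and LC derived.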

A-549 = assay: Inhibition of cells growth by colorimetric (SRB) assay, A-549; details: for GI50 / CC50: Homo sapiens, A549, 48 h
Method in brief: as §1

DU-145 = assay: Inhibition of cells growth by colorimetric (SRB) assay, DU-145; details: for GI50 / CC50: Homo sapiens, DU-145, 48 h; for GI50: read-out: DU-145 GI50, SRB assay, 48 hours exposure; for DU-145 TGI: SRB assay, 48 hours exposure
Method in brief: as §1

LoVo = assay: Inhibition of cells growth by colorimetric (SRB) assay, LoVo; details: for GI50 / CC50: Homo sapiens, LoVo, 48 h; for GI50: read-out: LOVO GI50, SRB assay, 48 hours exposure; for LOVO TGI: SRB assay, 48 hours exposure
Method in brief: as §1

HeLa = assay: Inhibition of cells growth by colorimetric (SRB) assay, HeLa; details: for GI50: Homo sapiens, HeLa, 48 h, read-out: HELA GI50, SRB assay, 48 hours exposure; for HELA TGI: SRB assay, 48 hours exposure; as to HELA TGI: unit not given here
Method in brief: as §1

SK-BR-3 = assay: Inhibition of cells growth by colorimetric (SRB) assay, SK-BR-3; details: for GI50 / CC50: Homo sapiens, SK-BR-3, 48 h; for GI50: read-out: SK-BR-3 GI50, SRB assay, 48 hours exposure; for SK-BR-3 TGI: SRB assay, 48 hours exposure
Method in brief: as §1

IGROV-ET = assay: Inhibition of cells growth by colorimetric (SRB) assay, IGROV-ET; details: for GI50 / CC50: Homo sapiens, 48 h; for GI50: read-out: IGROV-ET GI50, SRB assay, 48 hours exposure; for IGROV-ET TGI: SRB assay, 48 hours exposure
Method in brief: as §1

PANC-1 = assay: Inhibition of cells growth by colorimetric (SRB) assay, PANC-1; details: for GI50 / CC50: Homo sapiens, PANC-1, 48 h; for GI50: read-out: PANC-1 GI50, SRB assay, 48 hours exposure; for PANC-1 TGI: SRB assay, 48 hours exposure
Method in brief: as §1

IGROV-1 = assay: Inhibition of cells growth by colorimetric (SRB) assay, IGROV-1; details: for GI50 / CC50: Homo sapiens, IGROV-1, 48 h; for GI50: read-out: IGROV GI50, SRB assay, 48 hours exposure; for IGROV TGI: SRB assay, 48 hours exposure
Method in brief: as §1

LNCaP = assay: Inhibition of cells growth by colorimetric (SRB) assay, LNCaP; details: for GI50 / CC50: Homo sapiens, LNCaP, 48 h; for GI50: read-out: LN-caP GI50, SRB assay, 48 hours exposure; for LN-caP TGI: SRB assay, 48 hours exposure
Method in brief: as §1

HT-29 = assay: Inhibition of cells growth by colorimetric (SRB) assay, HT-29; details: for GI50 / CC50: Homo sapiens, HT-29, 48 h
Method in brief: as §1

HeLa-APL = assay: Inhibition of cells growth by colorimetric (SRB) assay, HeLa-APL; details: for GI50 / CC50: Homo sapiens, 48 h; for HELA-APL TGI: SRB assay, 48 hours exposure
Method in brief: as §1

SK-MEL-28 = assay: Inhibition of cells growth by colorimetric (SRB) assay, SK-MEL-28; details: for GI50 / CC50: Homo sapiens, SK-MEL-28, 48 h; for GI50: read-out: MEL-28 GI50, SRB assay, 48 hours exposure; for MEL-28 TGI: SRB assay, 48 hours exposure
Method in brief: as §1

K-562 = assay: Inhibition of cells growth by colorimetric (SRB) assay, K-562; details: for GI50 / CC50: Homo sapiens, K562, 48 h; for GI50: read-out: K-562 GI50, SRB assay, 48 hours exposure; for K-562 TGI: SRB assay, 48 hours exposure
Method in brief: as §1

[1] = read-out: A-549 GI50, SRB assay, 48 hours exposure
[2] = read-out: HT-29 GI50, SRB assay, 48 hours exposure

## CS(=O)(=O)c1nccc(-c2c3cccnc3n3c(N)nccc23)n1 [Compound 73]
LoVo-Dox
  GI50: 10.1 µM
  LOVO-DOX TGI: 2.94E−05
LoVo-Dox; read-out: LOVO-DOX LC50, SRB assay, 48 hours exposure
  CC50: 29.4 µM
A-549; [1]
  GI50: 11.3 µM
A-549; read-out: A-549 LC50, SRB assay, 48 hours exposure
  CC50: 29.4 µM
A-549; read-out: GI50 A-549, SRB assay, 48 hours exposure
  GI50: 4.41 µM
A-549; read-out: LC50 A-549, SRB assay, 48 hours exposure
  CC50: ≥ 147 µM
A-549; SRB assay, 48 hours exposure
  A-549 TGI: 2.94E−05
  TGI A-549: 1.47E−04
DU-145
  GI50: 29.4 µM
  DU-145 TGI: 2.94E−05
DU-145; read-out: DU-145 LC50, SRB assay, 48 hours exposure
  CC50: 29.4 µM
LoVo
  GI50: 14.4 µM
  LOVO TGI: 2.94E−05
LoVo; read-out: LOVO LC50, SRB assay, 48 hours exposure
  CC50: 29.4 µM
HeLa
  GI50: 0.00896 µM
  HELA TGI: 3.58E−08
SK-BR-3
  GI50: 2.08 µM
  SK-BR-3 TGI: 9.37E−06
SK-BR-3; read-out: SK-BR-3 LC50, SRB assay, 48 hours exposure
  CC50: 29.4 µM
IGROV-ET
  GI50: 2.05 µM
  IGROV-ET TGI: 2.94E−05
IGROV-ET; read-out: IGROV-ET LC50, SRB assay, 48 hours exposure
  CC50: 29.4 µM
PANC-1
  GI50: 12.3 µM
  PANC-1 TGI: 2.94E−05
PANC-1; read-out: PANC-1 LC50, SRB assay, 48 hours exposure
  CC50: 29.4 µM
IGROV-1
  GI50: 5.41 µM
  IGROV TGI: 2.94E−05
IGROV-1; read-out: IGROV LC50, SRB assay, 48 hours exposure
  CC50: 29.4 µM
LNCaP
  GI50: 4.76 µM
  LN-caP TGI: 1.51E−05
LNCaP; read-out: LN-caP LC50, SRB assay, 48 hours exposure
  CC50: 29.4 µM
HT-29; read-out: GI50 HT-29, SRB assay, 48 hours exposure
  GI50: ≥ 29.4 µM
HT-29; [2]
  GI50: 14.6 µM
HT-29; read-out: HT-29 LC50, SRB assay, 48 hours exposure
  CC50: 29.4 µM
HT-29; read-out: LC50 HT-29, SRB assay, 48 hours exposure
  CC50: ≥ 147 µM
HT-29; SRB assay, 48 hours exposure
  HT-29 TGI: 2.94E−05
  TGI HT-29: 1.47E−04
HeLa-APL; read-out: HELA-APL GI50, SRB assay, 48 hours exposure
  GI50: 0.013 µM
HeLa-APL; read-out: HELA-APL LC50, SRB assay, 48 hours exposure
  CC50: 7.23 µM
HeLa-APL
  HELA-APL TGI: 7.23E−08
SK-MEL-28
  GI50: 5.46 µM
  MEL-28 TGI: 2.94E−05
SK-MEL-28; read-out: MEL-28 LC50, SRB assay, 48 hours exposure
  CC50: 29.4 µM
K-562
  GI50: 13.7 µM
  K-562 TGI: 2.94E−05
K-562; read-out: K-562 LC50, SRB assay, 48 hours exposure
  CC50: 29.4 µM

## Cl.Nc1nccc(-c2c3c(O)ccnc3n3c(N)nccc23)n1 [Compound 54]
LoVo-Dox
  GI50: 0.155 µM
  LOVO-DOX TGI: 7.32E−07
LoVo-Dox; read-out: LOVO-DOX LC50
  CC50: 27.3 µM
A-549; [1]
  GI50: 0.339 µM
A-549; read-out: A-549 LC50
  CC50: 27.3 µM
A-549; SRB assay, 48 hours exposure
  A-549 TGI: 1.10E−06
DU-145
  GI50: 0.36 µM
  DU-145 TGI: 1.32E−06
DU-145; read-out: DU-145 LC50
  CC50: 27.3 µM
LoVo
  GI50: 0.266 µM
  LOVO TGI: 1.04E−06
LoVo; read-out: LOVO LC50
  CC50: 27.3 µM
HeLa
  GI50: 0.0573 µM
  HELA TGI: 1.17E−07
SK-BR-3
  GI50: 0.53 µM
  SK-BR-3 TGI: 1.19E−06
SK-BR-3; read-out: SK-BR-3 LC50
  CC50: 2.67 µM
IGROV-ET
  GI50: 0.421 µM
  IGROV-ET TGI: 1.48E−06
IGROV-ET; read-out: IGROV-ET LC50
  CC50: 27.3 µM
PANC-1
  GI50: 0.871 µM
  PANC-1 TGI: 3.28E−06
PANC-1; read-out: PANC-1 LC50
  CC50: 27.3 µM
IGROV-1
  GI50: 0.44 µM
  IGROV TGI: 1.37E−06
IGROV-1; read-out: IGROV LC50
  CC50: 27.3 µM
LNCaP
  GI50: 0.287 µM
  LN-caP TGI: 7.24E−07
LNCaP; read-out: LN-caP LC50
  CC50: 1.82 µM
HT-29; [2]
  GI50: 1.69 µM
HT-29; read-out: HT-29 LC50
  CC50: 27.3 µM
HT-29; SRB assay, 48 hours exposure
  HT-29 TGI: 8.71E−06
HeLa-APL; read-out: HELA-APL GI50
  GI50: 0.0612 µM
HeLa-APL; read-out: HELA-APL LC50
  CC50: 0.27 µM
HeLa-APL
  HELA-APL TGI: 1.28E−07
SK-MEL-28
  GI50: 0.945 µM
  MEL-28 TGI: 3.22E−06
SK-MEL-28; read-out: MEL-28 LC50
  CC50: 11.4 µM
K-562
  GI50: 1.67 µM
  K-562 TGI: 1.44E−05
K-562; read-out: K-562 LC50
  CC50: 27.3 µM
